Publication PMC4498724 (Drug Design, Development and Therapy, 2015)

What was measured:
[1] = molecular target: T1, ABCG2 (Homo sapiens, UniProt Q9UNQ0); assay: Vanadate-sensitive ATPase activity of ABCG2 in Sf9 insect cell membranes; settings: 2 μM compound; for Stimulation of vanadate-sensitive ABCG2 ATPase activity: basal activity without inhibitor taken as 100%
T1 sequence (Q9UNQ0 1-655): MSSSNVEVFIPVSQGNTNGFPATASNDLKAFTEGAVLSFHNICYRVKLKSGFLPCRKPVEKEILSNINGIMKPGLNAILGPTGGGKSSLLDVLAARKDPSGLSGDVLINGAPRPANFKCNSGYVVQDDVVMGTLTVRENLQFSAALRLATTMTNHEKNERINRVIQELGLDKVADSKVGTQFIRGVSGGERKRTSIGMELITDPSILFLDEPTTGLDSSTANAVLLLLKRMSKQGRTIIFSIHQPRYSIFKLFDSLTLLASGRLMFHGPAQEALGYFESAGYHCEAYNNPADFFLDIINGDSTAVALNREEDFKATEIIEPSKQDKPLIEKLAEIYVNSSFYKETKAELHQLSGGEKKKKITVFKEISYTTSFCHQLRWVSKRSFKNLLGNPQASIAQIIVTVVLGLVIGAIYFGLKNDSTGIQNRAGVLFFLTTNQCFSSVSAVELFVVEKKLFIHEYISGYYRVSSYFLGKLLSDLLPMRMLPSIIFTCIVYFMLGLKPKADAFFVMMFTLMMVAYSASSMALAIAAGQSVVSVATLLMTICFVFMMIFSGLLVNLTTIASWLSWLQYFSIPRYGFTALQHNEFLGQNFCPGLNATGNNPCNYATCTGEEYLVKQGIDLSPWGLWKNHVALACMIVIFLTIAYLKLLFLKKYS

[2] = molecular target: T2, human CK2 holoenzyme (Homo sapiens, UniProt P68400); assay: biochemical; settings: for inhibition at 10 µM: read-out: CK2 inhibition % at 10 µM
T2 sequence (P68400 whole entry): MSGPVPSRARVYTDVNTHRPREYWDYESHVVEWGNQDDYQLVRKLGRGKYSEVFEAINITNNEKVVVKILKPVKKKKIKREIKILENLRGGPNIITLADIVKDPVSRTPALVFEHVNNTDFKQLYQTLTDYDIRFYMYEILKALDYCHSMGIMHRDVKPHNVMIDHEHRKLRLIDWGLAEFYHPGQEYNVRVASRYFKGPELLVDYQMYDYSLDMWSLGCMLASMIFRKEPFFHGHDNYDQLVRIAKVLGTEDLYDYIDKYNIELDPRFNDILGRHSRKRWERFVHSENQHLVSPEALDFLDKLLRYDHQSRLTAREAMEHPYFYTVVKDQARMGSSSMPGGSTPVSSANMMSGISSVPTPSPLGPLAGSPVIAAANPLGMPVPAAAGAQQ
T2 sequence (P67870 whole entry partner): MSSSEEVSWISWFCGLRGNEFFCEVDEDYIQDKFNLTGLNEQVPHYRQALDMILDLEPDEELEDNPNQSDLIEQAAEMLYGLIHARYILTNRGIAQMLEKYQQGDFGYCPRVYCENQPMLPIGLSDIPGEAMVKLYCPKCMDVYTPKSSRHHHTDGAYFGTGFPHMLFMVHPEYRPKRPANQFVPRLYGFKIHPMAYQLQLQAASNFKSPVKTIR

[3] = molecular target: MRP1/ABCC1 (Homo sapiens, UniProt P33527); assay: Inhibition of MRP1-mediated calcein efflux in HEK293-ABCC1 cells; type: cell-based; settings: 2 μM or 10 μM; 35 μM verapamil taken as 100%
Chain of MRP1/ABCC1 (P33527 whole entry): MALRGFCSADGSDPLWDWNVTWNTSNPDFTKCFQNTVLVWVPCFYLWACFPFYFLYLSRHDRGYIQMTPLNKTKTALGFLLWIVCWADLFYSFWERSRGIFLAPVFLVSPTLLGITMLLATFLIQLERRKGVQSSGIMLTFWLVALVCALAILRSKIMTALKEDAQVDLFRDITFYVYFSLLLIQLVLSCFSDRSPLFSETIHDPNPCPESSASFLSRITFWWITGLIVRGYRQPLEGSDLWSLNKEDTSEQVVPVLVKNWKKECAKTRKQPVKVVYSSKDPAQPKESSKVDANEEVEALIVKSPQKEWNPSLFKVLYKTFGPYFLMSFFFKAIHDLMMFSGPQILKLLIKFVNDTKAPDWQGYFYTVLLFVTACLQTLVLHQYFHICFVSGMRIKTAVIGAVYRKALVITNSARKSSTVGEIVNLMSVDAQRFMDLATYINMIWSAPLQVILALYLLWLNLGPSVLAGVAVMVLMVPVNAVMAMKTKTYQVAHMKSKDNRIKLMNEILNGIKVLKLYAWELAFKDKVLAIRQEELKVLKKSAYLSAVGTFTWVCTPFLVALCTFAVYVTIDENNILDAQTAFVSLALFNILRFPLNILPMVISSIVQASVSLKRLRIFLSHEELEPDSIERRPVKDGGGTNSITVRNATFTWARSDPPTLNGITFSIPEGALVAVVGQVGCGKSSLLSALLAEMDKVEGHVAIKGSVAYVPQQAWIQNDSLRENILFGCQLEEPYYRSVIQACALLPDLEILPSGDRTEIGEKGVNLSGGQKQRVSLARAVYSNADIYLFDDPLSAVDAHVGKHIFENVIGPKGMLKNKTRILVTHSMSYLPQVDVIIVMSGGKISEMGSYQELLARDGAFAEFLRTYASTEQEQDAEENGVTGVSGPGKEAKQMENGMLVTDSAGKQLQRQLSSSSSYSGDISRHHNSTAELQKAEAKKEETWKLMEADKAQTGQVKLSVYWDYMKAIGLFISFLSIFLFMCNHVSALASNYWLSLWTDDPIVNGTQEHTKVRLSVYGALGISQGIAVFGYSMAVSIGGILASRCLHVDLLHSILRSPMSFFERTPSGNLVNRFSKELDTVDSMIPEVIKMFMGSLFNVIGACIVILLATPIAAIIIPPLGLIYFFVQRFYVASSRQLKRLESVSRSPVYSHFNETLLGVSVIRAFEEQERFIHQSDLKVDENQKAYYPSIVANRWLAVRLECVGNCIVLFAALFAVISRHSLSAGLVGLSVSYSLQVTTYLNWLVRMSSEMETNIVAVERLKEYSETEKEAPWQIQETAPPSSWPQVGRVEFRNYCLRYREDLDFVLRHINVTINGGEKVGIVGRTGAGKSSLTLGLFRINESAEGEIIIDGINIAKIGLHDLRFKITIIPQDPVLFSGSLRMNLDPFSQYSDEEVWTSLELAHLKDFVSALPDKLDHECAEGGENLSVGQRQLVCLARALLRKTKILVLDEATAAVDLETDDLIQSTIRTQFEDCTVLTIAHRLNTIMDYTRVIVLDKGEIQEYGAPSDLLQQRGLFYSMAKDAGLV

[4] = molecular target: T2, human CK2 holoenzyme; settings: IC50 (CK2) divided by IC50 (ABCG2) of Table 1
[5] = tested on: Wild-type HEK293 cells; assay: Intrinsic cytotoxicity, MTT cell-survival assay; settings: 72 hours of treatment
[6] = molecular target: T1, ABCG2; assay: Inhibition of ABCG2-mediated mitoxantrone efflux in ABCG2-transfected cells; type: cell-based

Structure (SMILES)	Stimulation of vanadate-sensitive ABCG2 ATPase activity [1]	IC50 [2] [µM]	inhibition at 10 µM [2] [%]	Inhibition of MRP1-mediated calcein efflux [3]	AGCG2/CK2 [4]	Cytotoxicity IG50 [5] [µM]	IC50 [6] [µM]	Effect on ABCG2 basal ATPase activity [1]
O=C1c2ccccc2-c2c1c1c(O)cccc1n2CCc1ccccc1 [Compound 5c, 9-Hydroxy-5-(2-phenylethyl)-5H-indeno[1,2-b]indole-10-one]	2- to 4.5 fold	7.5	57	very limited, if any, inhibition	47	42.7 ± 9.7	0.16 ± 0.02	–
O=C1c2ccccc2-c2c1c1c(O)cccc1n2CCCc1ccccc1 [Compound 5d, 9-Hydroxy-5-(3-phenylpropyl)-5H-indeno[1,2-b]indole-10-one]	2- to 4.5 fold	~20	27	–	–	–	0.64 ± 0.23	–
Cc1cc(O)c2c3c(n(CCc4ccccc4)c2c1)-c1ccccc1C3=O [Compound 5f, 9-Hydroxy-7-methyl-5-(2-phenylethyl)-5H-indeno[1,2-b]indole-10-one]	2- to 4.5 fold	–	–	very limited, if any, inhibition	–	42.3 ± 2.8	0.16 ± 0.01	–
O=C1c2ccccc2-c2c1c1c(O)cc(-c3ccccc3)cc1n2CCc1ccccc1 [Compound 5g, 9-Hydroxy-7-phenyl-5-(2-phenylethyl)-5H-indeno[1,2-b]indole-10-one]	2- to 4.5 fold	~11	–	–	–	–	0.51 ± 0.09	–
COc1ccccc1CCn1c2c(c3c(O)cccc31)C(=O)c1ccccc1-2 [Compound 5h, 9-Hydroxy-5-[2-(2-methoxyphenyl)ethyl]-5H-indeno[1,2-b]indole-10-one]	2- to 4.5 fold	1.3	–	very limited, if any, inhibition	–	54 ± 14	0.15 ± 0.01	–
COc1cccc(CCn2c3c(c4c(O)cccc42)C(=O)c2ccccc2-3)c1 [Compound 5i, 9-Hydroxy-5-[2-(3-methoxyphenyl)ethyl]-5H-indeno[1,2-b]indole-10-one]	2- to 4.5 fold	~11.5	44	–	–	45.7 ± 6.1	0.37 ± 0.09	–
COc1ccc(CCn2c3c(c4c(O)cccc42)C(=O)c2ccccc2-3)cc1 [Compound 5j, 9-Hydroxy-5-[2-(4-methoxyphenyl)ethyl]-5H-indeno[1,2-b]indole-10-one]	2- to 4.5 fold	~14	–	–	–	–	0.2 ± 0.01	maximal stimulation
O=c1ccc(=O)c2c1c1c(=O)c3ccccc3c1n2CCc1ccccc1 [Compound 6c, 5-(2-Phenylethyl)-5H-indeno[1,2-b]indole-6,9,10-trione]	–	~13	40	–	–	6.9 ± 2.1	~30	did not produce any effect
O=c1ccc(=O)c2c1c1c(=O)c3ccccc3c1n2CCCc1ccccc1 [Compound 6d, 5-(3-Phenylpropyl)-5H-indeno[1,2-b] indole-6,9,10-trione]	–	6.4	60	–	–	6.8 ± 0.5	~15	–
O=c1cc(-c2ccccc2)c(=O)c2c1c1c(=O)c3ccccc3c1n2Cc1ccccc1 [Compound 6e, 5-Benzyl-7-phenyl-5H-indeno[1,2-b]indole-6,9,10-trione]	–	~13	40	–	–	7.1 ± 1.1	~13	did not produce any effect
Cc1cc(=O)c2c3c(=O)c4ccccc4c3n(CCc3ccccc3)c2c1=O [Compound 6f, 7-Methyl-5-(2-phenylethyl)-5H-indeno[1,2-b]indole-6,9,10-trione]	–	–	–	very limited, if any, inhibition	–	15.6 ± 5.9	0.84 ± 0.31	did not produce any effect
O=c1cc(-c2ccccc2)c(=O)c2c1c1c(=O)c3ccccc3c1n2CCc1ccccc1 [Compound 6g, 7-Phenyl-5-(2-phenylethyl)-5H-indeno[1,2-b]indole-6,9,10-trione]	–	~11.5	44	very limited, if any, inhibition	–	3.7 ± 2.2	0.43 ± 0.01	very limited stimulation
